Data reported in patent EP1561465A2, “Methods of use of fluoroquinolone compounds against bacteria” (LG Life Sciences, Ltd., priority 1999, dated 2001).
Converted amounts (≈) assume the structure as drawn. Like-named read-outs stand apart in the source and are kept apart here.

How the values were obtained:
Test in all cases: MIC by NCCLS reference broth microdilution, 450 respiratory tract pathogens
Type in all cases: cell-based
Streptococcus pneumoniae = conditions: Streptococcus pneumoniae
Streptococcus pyogenes = conditions: Streptococcus pyogenes
Haemophilus influenzae = system: Haemophilus influenzae
Moraxella catarrhalis = system: Moraxella catarrhalis
Staphylococcus aureus = system: Staphylococcus aureus
Klebsiella pneumoniae = conditions: for MIC50 / MIC90: Klebsiella pneumoniae
[1] = Streptococcus pneumoniae (n = 100)
[2] = erythromycin resistant M phenotype (n = 16)
[3] = erythromycin resistant MLSB phenotype (n = 16)
[4] = penicillin intermediate (n = 16)
[5] = penicillin susceptible (n = 20)
[6] = Streptococcus pyogenes (n = 100)
[7] = erythromycin resistant C phenotype [MLSB] (n = 20)
[8] = erythromycin resistant I phenotype [MLSB] (n = 20)
[9] = erythromycin resistant M phenotype (n = 20)
[10] = Haemophilus influenzae, Haemophilus influenzae (n = 100)
[11] = Haemophilus influenzae, β-lactamase negative (n = 80)
[12] = Haemophilus influenzae, β-lactamase positive (n = 20)
[13] = β-lactamase positive and erythromycin resistant (n = 10)
[14] = extended spectrum β-lactamase negative (n = 30)
[15] = extended spectrum β-lactamase positive (n = 20)

NC1CCN(c2c(F)cc3c(=O)c(C(=O)O)cn(C4CC4)c3c2Cl)C1 (stereo not shown) [Clinafloxacin, clinafloxacin]
MIC (Streptococcus pneumoniae; [1]): 0.03 to 0.25 µg/mL (≈ 0.082 to 0.683 µM) | MIC50 (Streptococcus pneumoniae; [1]): 0.06 µg/mL (≈ 0.164 µM) | MIC90 (Streptococcus pneumoniae; [1]): 0.12 µg/mL (≈ 0.328 µM) | MIC (Streptococcus pneumoniae; [2]): 0.03 to 0.12 µg/mL (≈ 0.082 to 0.328 µM) | MIC50 (Streptococcus pneumoniae; [2]): 0.06 µg/mL (≈ 0.164 µM) | MIC90 (Streptococcus pneumoniae; [2]): 0.12 µg/mL (≈ 0.328 µM) | MIC (Streptococcus pneumoniae; [3]): 0.03 to 0.12 µg/mL (≈ 0.082 to 0.328 µM) | MIC50 (Streptococcus pneumoniae; [3]): 0.06 µg/mL (≈ 0.164 µM) | MIC90 (Streptococcus pneumoniae; [3]): 0.12 µg/mL (≈ 0.328 µM) | MIC (Streptococcus pneumoniae; multi-drug resistant (n = 16)): 0.06 to 0.12 µg/mL (≈ 0.164 to 0.328 µM) | MIC50 (Streptococcus pneumoniae; multi-drug resistant (n = 16)): 0.12 µg/mL (≈ 0.328 µM) | MIC90 (Streptococcus pneumoniae; multi-drug resistant (n = 16)): 0.12 µg/mL (≈ 0.328 µM) | MIC (Streptococcus pneumoniae; [4]): 0.06 to 0.12 µg/mL (≈ 0.164 to 0.328 µM) | MIC50 (Streptococcus pneumoniae; [4]): 0.12 µg/mL (≈ 0.328 µM) | MIC90 (Streptococcus pneumoniae; [4]): 0.12 µg/mL (≈ 0.328 µM) | MIC (Streptococcus pneumoniae; penicillin resistant (n = 18)): 0.06 to 0.25 µg/mL (≈ 0.164 to 0.683 µM) | MIC50 (Streptococcus pneumoniae; penicillin resistant (n = 18)): 0.12 µg/mL (≈ 0.328 µM) | MIC90 (Streptococcus pneumoniae; penicillin resistant (n = 18)): 0.25 µg/mL (≈ 0.683 µM) | MIC (Streptococcus pneumoniae; [5]): 0.015 to 0.12 µg/mL (≈ 0.041 to 0.328 µM) | MIC50 (Streptococcus pneumoniae; [5]): 0.06 µg/mL (≈ 0.164 µM) | MIC90 (Streptococcus pneumoniae; [5]): 0.12 µg/mL (≈ 0.328 µM) | MIC (Streptococcus pyogenes; [6]): 0.015 to 0.12 µg/mL (≈ 0.041 to 0.328 µM) | MIC50 (Streptococcus pyogenes; [6]): 0.06 µg/mL (≈ 0.164 µM) | MIC90 (Streptococcus pyogenes; [6]): 0.06 µg/mL (≈ 0.164 µM) | MIC (Streptococcus pyogenes; [7]): 0.03 to 0.12 µg/mL (≈ 0.082 to 0.328 µM) | MIC50 (Streptococcus pyogenes; [7]): 0.06 µg/mL (≈ 0.164 µM) | MIC90 (Streptococcus pyogenes; [7]): 0.12 µg/mL (≈ 0.328 µM) | MIC (Streptococcus pyogenes; [8]): 0.03 to 0.06 µg/mL (≈ 0.082 to 0.164 µM) | MIC50 (Streptococcus pyogenes; [8]): 0.06 µg/mL (≈ 0.164 µM) | MIC90 (Streptococcus pyogenes; [8]): 0.06 µg/mL (≈ 0.164 µM) | MIC (Streptococcus pyogenes; [9]): 0.015 to 0.06 µg/mL (≈ 0.041 to 0.164 µM) | MIC50 (Streptococcus pyogenes; [9]): 0.03 µg/mL (≈ 0.082 µM) | MIC90 (Streptococcus pyogenes; [9]): 0.06 µg/mL (≈ 0.164 µM) | MIC (Streptococcus pyogenes; fully susceptible (n = 20)): 0.03 to 0.12 µg/mL (≈ 0.082 to 0.328 µM) | MIC50 (Streptococcus pyogenes; fully susceptible (n = 20)): 0.03 µg/mL (≈ 0.082 µM) | MIC90 (Streptococcus pyogenes; fully susceptible (n = 20)): 0.06 µg/mL (≈ 0.164 µM) | MIC (Streptococcus pyogenes; multi-drug resistant (n = 20)): 0.03 to 0.06 µg/mL (≈ 0.082 to 0.164 µM) | MIC50 (Streptococcus pyogenes; multi-drug resistant (n = 20)): 0.03 µg/mL (≈ 0.082 µM) | MIC90 (Streptococcus pyogenes; multi-drug resistant (n = 20)): 0.06 µg/mL (≈ 0.164 µM) | MIC90 (Haemophilus influenzae; Haemophilus influenzae (n = 100)): ≤0.00075 µg/mL | MIC (Haemophilus influenzae; [10]): 0.0075 to 0.06 µg/mL (≈ 0.0205 to 0.164 µM) | MIC50 (Haemophilus influenzae; [10]): ≤ 0.00075 µg/mL | MIC90 (Haemophilus influenzae; Haemophilus influenzae, Haemophilus influenzae (n = 100), read-out: MIC90): ≤ 0.00075 µg/mL | MIC (Haemophilus influenzae; [11]): 0.0075 to 0.06 µg/mL (≈ 0.0205 to 0.164 µM) | MIC50 (Haemophilus influenzae; [11]): ≤ 0.0075 µg/mL | MIC90 (Haemophilus influenzae; Haemophilus influenzae, β-lactamase negative (n = 80), read-out: MIC90): ≤ 0.0075 µg/mL | MIC (Haemophilus influenzae; [12]): 0.0075 to 0.25 µg/mL (≈ 0.0205 to 0.683 µM) | MIC50 (Haemophilus influenzae; [12]): ≤ 0.0075 µg/mL | MIC90 (Haemophilus influenzae; Haemophilus influenzae, β-lactamase positive (n = 20), read-out: MIC90): ≤ 0.0075 µg/mL | MIC (Moraxella catarrhalis; Moraxella catarrhalis (n = 50)): 0.00375 to 0.015 µg/mL (≈ 0.0103 to 0.041 µM) | MIC50 (Moraxella catarrhalis; Moraxella catarrhalis (n = 50)): ≤ 0.00375 µg/mL | MIC90 (Moraxella catarrhalis; Moraxella catarrhalis (n = 50)): 0.015 µg/mL (≈ 0.041 µM) | MIC (Moraxella catarrhalis; β-lactamase negative (n = 13)): 0.00375 to 0.015 µg/mL (≈ 0.0103 to 0.041 µM) | MIC50 (Moraxella catarrhalis; β-lactamase negative (n = 13)): ≤ 0.00375 µg/mL | MIC90 (Moraxella catarrhalis; β-lactamase negative (n = 13)): 0.015 µg/mL (≈ 0.041 µM) | MIC (Moraxella catarrhalis; β-lactamase positive (n = 37)): 0.00375 to 0.015 µg/mL (≈ 0.0103 to 0.041 µM) | MIC50 (Moraxella catarrhalis; β-lactamase positive (n = 37)): ≤ 0.00375 µg/mL | MIC90 (Moraxella catarrhalis; β-lactamase positive (n = 37)): 0.015 µg/mL (≈ 0.041 µM) | MIC (Staphylococcus aureus; Staphylococcus aureus (n = 50)): 0.06 to 0.25 µg/mL (≈ 0.164 to 0.683 µM) | MIC50 (Staphylococcus aureus; Staphylococcus aureus (n = 50)): 0.12 µg/mL (≈ 0.328 µM) | MIC90 (Staphylococcus aureus; Staphylococcus aureus (n = 50)): 0.25 µg/mL (≈ 0.683 µM) | MIC (Staphylococcus aureus; β-lactamase negative (n = 20)): 0.06 to 0.25 µg/mL (≈ 0.164 to 0.683 µM) | MIC50 (Staphylococcus aureus; β-lactamase negative (n = 20)): 0.12 µg/mL (≈ 0.328 µM) | MIC90 (Staphylococcus aureus; β-lactamase negative (n = 20)): 0.25 µg/mL (≈ 0.683 µM) | MIC (Staphylococcus aureus; β-lactamase positive (n = 20)): 0.06 to 0.25 µg/mL (≈ 0.164 to 0.683 µM) | MIC50 (Staphylococcus aureus; β-lactamase positive (n = 20)): 0.12 µg/mL (≈ 0.328 µM) | MIC90 (Staphylococcus aureus; β-lactamase positive (n = 20)): 0.25 µg/mL (≈ 0.683 µM) | MIC (Staphylococcus aureus; [13]): 0.06 to 0.25 µg/mL (≈ 0.164 to 0.683 µM) | MIC50 (Staphylococcus aureus; [13]): 0.12 µg/mL (≈ 0.328 µM) | MIC90 (Staphylococcus aureus; [13]): 0.25 µg/mL (≈ 0.683 µM) | MIC Range (Klebsiella pneumoniae; Klebsiella pneumoniae (n = 50)): ≤0.0075 to 1 µg/mL | MIC50 (Klebsiella pneumoniae; Klebsiella pneumoniae (n = 50)): 0.015 µg/mL (≈ 0.041 µM) | MIC90 (Klebsiella pneumoniae; Klebsiella pneumoniae (n = 50)): 1 µg/mL (≈ 2.73 µM) | MIC50 (Klebsiella pneumoniae; [14]): ≤ 0.0075 µg/mL | MIC90 (Klebsiella pneumoniae; [14]): 0.015 µg/mL (≈ 0.041 µM) | MIC50 (Klebsiella pneumoniae; [15]): ≤ 0.0075 µg/mL | MIC90 (Klebsiella pneumoniae; [15]): 1 µg/mL (≈ 2.73 µM) | MIC Range (Klebsiella pneumoniae; [14]): ≤0.0075 to 0.12 µg/mL | MIC Range (Klebsiella pneumoniae; [15]): ≤0.0075 to 1 µg/mL
